Like-named read-outs stand apart in the source and are kept apart here.
Key:
Type in all cases: physicochemical
[1] = Dynamic vapor sorption (DVS) analysis
Procedure: The solids with unique XRPD patterns were characterized by DSC, TGA, ^1H NMR, KF and DVS. All XRPD patterns were obtained in the experimental setting as follows: 45 kV, 40 mA, Kα1=1.5406 Å, scan range 2 to 40°, step size 0.0167°, counting time: 15.24 s. DSC and TGA analyses were performed using 10° C./min heating rate over the 20 to 350° C. temperature range.

[2] = Hydrate screen in ethanol/water and isopropanol/water: solubility and relative form stability; details: for Form III Solubility mg/g (1 day): from 50:50 w/w mixture of Form I & III
Procedure: A hydrate screen starting from Form I was also conducted to evaluate whether hydrates of Compound I exist. The hydrate screen was conducted in ethanol/water (Table 6) and isopropanol/water (Table 7) mixtures, and in both cases, a new polymorph of Compound I was discovered (denoted as Form III).
From the initial hydrate screens presented in Table 6 and Table 7 no apparent trends were observed. In this case, all slurries of Form I in EtOH/water or IPA/water mixtures remained unchanged after 2 weeks (Table 8 and Table 9). Since Form III has been observed previously under the same conditions, it was suspected that the lack of form conversion is mainly due to slow kinetics. […] Attempts to determine the relative stability between Forms I and III at lower water activities were unsuccessful since Form I either was too soluble or oiled out at water activities of 0.8 or below.

[3] = Thermal stability of Compound I Form IV under vacuum at 45° C. (XRPD, HPLC); details: for HPLC (% AN) / XRPD / HPLC (% ES): drying under vacuum at 45° C.
Procedure: Drying study was also performed of Compound I Form IV under vacuum at 45° C. in an attempt to determine the chemical stability of this material by HPLC as well as form stability by XRPD.

[4] = Stable form screen of Compound I Form IV (slurry at room temperature); details: for solubility at 24 h: slurry of the solid in solvent, thermodynamic from solid, read-out: Solubility after 24 h
Procedure: Compound I Form IV (about 50 mg) was slurried in 0.5-1 mL of solvent and allowed to stir at room temperature for 2 weeks. […] Similar results were observed after 2 weeks of equilibration (Table 15).

[5] = Abbreviated stable form screen of Compound I Form V (slurry at room temperature); details: for solubility at 3 days: slurry of the solid in solvent, organic solvent or mixture, thermodynamic from solid, solid converted to Form VI
Procedure: Abbreviated stable form screen of Compound I Four V was performed by slurrying […] (about 100 mg) in IPA, IPAc and MTBE (1-2 mL) in an attempt to obtain anhydrous form as summarized in Table 16. The first aliquot (about 0.5 mL) was taken for XRPD analysis and solubility assessment after 3 days of equilibration at room temperature. Solids were analyzed before and after overnight drying at 45° C. […] After two weeks equilibration at room temperature no form change was observed. XRPD patterns of all samples were consistent with Compound I Form VI.

[6] = under vacuum at 45° C., 2 and 7 days

**Q.** What does the source list for “4-(pyrimidin-2-ylmethyl)-7-(4-(trifluoromethoxy)phenyl)-3,4-dihydrobenzo[f][1,4]oxazepin-5(2H)-one edisylate [Compound I Form XVII]”?
**A.** Hygroscopicity by DVS (in words) [1]: slightly hygroscopic; Moisture uptake at 90% RH (DVS) [1]: about 1%

**Q.** For O=C1c2cc(-c3ccc(OC(F)(F)F)cc3)ccc2OCCN1Cc1ncccn1 [Compound I Form III, 4-(pyrimidin-2-ylmethyl)-7-(4-(trifluoromethoxy)phenyl)-3,4-dihydrobenzo[f][1,4]oxazepin-5(2H)-one], which “Form III Solubility mg/g (1 day)” value ([2]; 10% EtOH/water, water activity >0.9) is on record?
**A.** Its value is 0.06 mg/g.

**Q.** And the “Form III Solubility mg/g (1 day)” value ([2]; 10% IPA/water, water activity >0.9)?
**A.** Its value is 0.06 mg/g.

**Q.** What about the “Form III Solubility mg/g (1 day)” value ([2]; 20% EtOH/water, water activity 0.8-0.9) of the same compound?
**A.** The value was 0.10 mg/g.

**Q.** What about the “Form III Solubility mg/g (1 day)” value ([2]; 20% IPA/water, water activity >0.9) of the same compound?
**A.** Its value is 0.19 mg/g.

**Q.** What about the “Form III Solubility mg/g (1 day)” value ([2]; 25% IPA/water, water activity >0.9) of the same compound?
**A.** Its value is 0.78 mg/g.

**Q.** What about the “Form III Solubility mg/g (1 day)” value ([2]; 30% EtOH/water, water activity 0.8-0.9) of the same compound?
**A.** The value was 0.49 mg/g.

**Q.** What about the “Form III Solubility mg/g (1 day)” value ([2]; 30% IPA/water, water activity >0.9) of the same compound?
**A.** Its value is 3.2 mg/g.

**Q.** And the “Form III Solubility mg/g (1 day)” value ([2]; 35% EtOH/water, water activity 0.8-0.9)?
**A.** The value was 1.8 mg/g.

**Q.** What about the “Relative polymorph stability (competition slurry Form I/Form III)” value ([2]; water activities above 0.8, EtOH/water or IPA/water) of the same compound?
**A.** The value was “the most stable polymorph of Compound I”.

**Q.** Which “Hygroscopicity by DVS (in words)” value [1] does the source give for CS(=O)(=O)O.O=C1c2cc(-c3ccc(OC(F)(F)F)cc3)ccc2OCCN1Cc1ncccn1 [Compound I Form IV, 4-(pyrimidin-2-ylmethyl)-7-(4-(trifluoromethoxy)phenyl)-3,4-dihydrobenzo[f][1,4]oxazepin-5(2H)-one methanesulfonic acid] here?
**A.** The value was “slightly hygroscopic”.

**Q.** And the “Moisture uptake at 90% RH (DVS)” value [1]?
**A.** The value was 1.0 wt %.

**Q.** And the “Moisture uptake at 90% RH (DVS)” value ([1]; listed as Form IV)?
**A.** The value was 1.01 wt % at.

**Q.** And the “Hygroscopicity by DVS (in words)” value ([1]; listed as Form IV)?
**A.** The value was “Slightly”.

**Q.** And the “HPLC (% AN)” value ([3]; 0 days)?
**A.** Its value is 100 % AN.

**Q.** What about the XRPD ([3]; 0 days) of the same compound?
**A.** Its XRPD is “Form IV”.

**Q.** What about the “HPLC (% ES)” value ([3]; 0 days, theoretical strength 81.21%) of the same compound?
**A.** Its value is 80.2 % ES.

**Q.** And the “HPLC (% AN)” value ([3]; 2 days)?
**A.** Its value is 100 % AN.

**Q.** What about the XRPD ([3]; 2 days) of the same compound?
**A.** Its XRPD is “Form IV”.

**Q.** What about the “HPLC (% ES)” value ([3]; 2 days, theoretical strength 81.21%) of the same compound?
**A.** Its value is 85.4 % ES.

**Q.** What about the “HPLC (% AN)” value ([3]; 7 days) of the same compound?
**A.** The value was 100 % AN.

**Q.** And the XRPD ([3]; 7 days)?
**A.** Its XRPD is “Form IV”.

**Q.** What about the “HPLC (% ES)” value ([3]; 7 days, theoretical strength 81.21%) of the same compound?
**A.** Its value is 82.1 % ES.

**Q.** And the “Form stability by XRPD during drying (in words)” value [3, 6]?
**A.** The value was “did not show any form change”.

**Q.** And the “HPLC purity during drying” value [3, 6]?
**A.** Its value is 100 % (AUC).

**Q.** And the “HPLC strength during drying” value ([3]; under vacuum at 45° C., 2 and 7 days, theoretical strength 81.21%)?
**A.** The value was 80 to 85%.

**Q.** And the “Form stability in slurry by XRPD (in words)” value ([4]; 17 solvents, 24 h, similar after 2 weeks, water afforded Form III (wet), Form III + Form II after air drying)?
**A.** The value was “no form change in all solvents except water”.

**Q.** And the solubility at 24 h ([4]; aqueous with cosolvent or surfactant or cyclodextrin, EtOH/water 0.8 water activity (480 μL H2O and 520 μL EtOH), all solids dissolved)?
**A.** The solubility at 24 h was over 150000 µg/mL.

**Q.** What about the solubility at 24 h ([4]; organic solvent or mixture, 2-Me-THF) of the same compound?
**A.** The solubility at 24 h was 2300 µg/mL.

**Q.** What about the solubility at 24 h ([4]; organic solvent or mixture, Acetone) of the same compound?
**A.** The solubility at 24 h was 4160 µg/mL.

**Q.** What about the solubility at 24 h ([4]; organic solvent or mixture, DCM) of the same compound?
**A.** Its solubility at 24 h is 5480 µg/mL.

**Q.** What about the solubility at 24 h ([4]; organic solvent or mixture, EtOAc) of the same compound?
**A.** The solubility at 24 h was 1260 µg/mL.

**Q.** And the solubility at 24 h ([4]; organic solvent or mixture, EtOH)?
**A.** The solubility at 24 h was 12200 µg/mL.

**Q.** And the solubility at 24 h ([4]; organic solvent or mixture, Heptane)?
**A.** The solubility at 24 h was 100 µg/mL.

**Q.** What about the solubility at 24 h ([4]; organic solvent or mixture, IPA) of the same compound?
**A.** The solubility at 24 h was 5420 µg/mL.

**Q.** What about the solubility at 24 h ([4]; organic solvent or mixture, IPAc) of the same compound?
**A.** Its solubility at 24 h is 780 µg/mL.

**Q.** And the solubility at 24 h ([4]; organic solvent or mixture, MEK)?
**A.** The solubility at 24 h was 3140 µg/mL.

**Q.** What about the solubility at 24 h ([4]; organic solvent or mixture, MIBK) of the same compound?
**A.** Its solubility at 24 h is 1420 µg/mL.

**Q.** What about the solubility at 24 h ([4]; organic solvent or mixture, MTBE) of the same compound?
**A.** Its solubility at 24 h is 340 µg/mL.

**Q.** What about the solubility at 24 h ([4]; organic solvent or mixture, MeCN) of the same compound?
**A.** The solubility at 24 h was 4820 µg/mL.

**Q.** What about the solubility at 24 h ([4]; organic solvent or mixture, MeOH) of the same compound?
**A.** The solubility at 24 h was 40400 µg/mL.

**Q.** What about the solubility at 24 h ([4]; organic solvent or mixture, THF) of the same compound?
**A.** The solubility at 24 h was 7940 µg/mL.

**Q.** What about the solubility at 24 h ([4]; organic solvent or mixture, Toluene) of the same compound?
**A.** Its solubility at 24 h is 360 µg/mL.

**Q.** What about the solubility at 24 h ([4]; water, Water, solid converted to Form III (wet)) of the same compound?
**A.** Its solubility at 24 h is 4340 µg/mL.

**Q.** Which “Form stability in slurry by XRPD (in words)” value ([5]; IPA, IPAc and MTBE, 3 days, no further change after two weeks) does the source give for O=C1c2cc(-c3ccc(OC(F)(F)F)cc3)ccc2OCCN1Cc1ncccn1.O=S(=O)(O)c1ccccc1 [Compound I Form V, 4-(pyrimidin-2-ylmethyl)-7-(4-(trifluoromethoxy)phenyl)-3,4-dihydrobenzo[f][1,4]oxazepin-5(2H)-one benzene sulfonic acid] here?
**A.** The value was “all solids converted to anhydrous Compound I Form VI”.

**Q.** And the solubility at 3 days ([5]; IPA)?
**A.** Its solubility at 3 days is 16100 µg/mL.

**Q.** And the solubility at 3 days ([5]; IPAc)?
**A.** Its solubility at 3 days is 2200 µg/mL.

**Q.** What about the solubility at 3 days ([5]; MTBE) of the same compound?
**A.** Its solubility at 3 days is 460 µg/mL.

**Q.** Which results are given for O=C1c2cc(-c3ccc(OC(F)(F)F)cc3)ccc2OCCN1Cc1ncccn1.O=S(=O)(O)c1ccccc1 [Compound I Form VI, 4-(pyrimidin-2-ylmethyl)-7-(4-(trifluoromethoxy)phenyl)-3,4-dihydrobenzo[f][1,4]oxazepin-5(2H)-one benzene sulfonic acid]?
**A.** Hygroscopicity by DVS (in words) [1]: non-hygroscopic; Moisture uptake at 90% RH (DVS) [1]: about 0.1%; Moisture uptake at 90% RH (DVS) ([1]; listed as Form VI): 0.11 wt % at; Hygroscopicity by DVS (in words) ([1]; listed as Form VI): Non-

**Q.** Which “Relative humidity of deliquescence (DVS)” value [1] does the source give for CCS(=O)(=O)O.O=C1c2cc(-c3ccc(OC(F)(F)F)cc3)ccc2OCCN1Cc1ncccn1 [Compound I Form XVI, 4-(pyrimidin-2-ylmethyl)-7-(4-(trifluoromethoxy)phenyl)-3,4-dihydrobenzo[f][1,4]oxazepin-5(2H)-one esylate] here?
**A.** The value was “around 90 % RH”.

**Q.** With O=C(O)C(=O)O.O=C1c2cc(-c3ccc(OC(F)(F)F)cc3)ccc2OCCN1Cc1ncccn1 [Compound I Form XVIII, 4-(pyrimidin-2-ylmethyl)-7-(4-(trifluoromethoxy)phenyl)-3,4-dihydrobenzo[f][1,4]oxazepin-5(2H)-one oxalate] as the compound, how does the “Hygroscopicity by DVS (in words)” value [1] read?
**A.** The value was “non-hygroscopic”.

**Q.** What about the “Moisture uptake at 90% RH (DVS)” value [1] of the same compound?
**A.** The value was “about 0.075%”.

From patent publication US9273038B2, “Solid forms of an ion channel modulator” (Gilead Sciences, Inc., priority 2014, dated 2016)
